Here are results for two compounds from patent US9763996B2, “Polymyxin derivative and uses thereof” (Northern Antibiotics Ltd., priority 2015, dated 2017).

In one data set the test system is P. aeruginosa. As to the kind of experiment: Synergy studies with rifampin. The data set is classed as cell-based, Pseudomonas aeruginosa. The settings on record: against P. aeruginosa. As to the method:
Synergy studies were performed by using polymyxin derivatives in combination with rifampin, a model compound for such antibacterial agents that the intact outer membrane of Gram-negative bacteria acts as a permeability barrier.

Data set [1] can be described thus: 7-day IV infusion toxicity (nephrotoxicity) study in cynomolgus monkeys. The settings on record: for unscheduled necropsy / euthanized due to severe nephrotoxic effects: 3 animals per group. As to the method: In vivo toxicity and toxicokinetic studies were performed by using cynomolgus monkeys. The laboratory that performed the animal studies is accredited by the Association for Assessment and Accreditation of Laboratory Animal Care (AAALAC), has an Animal Welfare Assurance issued by the Office of Laboratory Animal Welfare (OLAW), is registered with the United States Department of Agriculture (USDA), and has an Institutional Animal Care and Use Committee (IACUC) responsible for compliance with applicable laws and regulations concerning the humane care and use of laboratory animals.
Naïve female cynomolgus monkeys were acclimatized to study room for 28 days during which each animal was implanted with a permanent indwelling femoral catheter to permit continuous intravenous infusions. The animals were allowed surgical recovery period of at least 2 weeks before initiating dosing.
Polymyxin B sulfate was from Sigma-Aldrich (catalogue number P0972, lot number BCBF8382V). On each day of use, appropriate quantities of NAB739, NAB815 or polymyxin B were weighed and dissolved in appropriate volumes of sterile saline to prepare a stock solution for each test article and positive control. A correction factor was used in the stock solution preparation to account for both the purity and sulfate content in each test article. Accordingly, the dose (such as 36 mg/kg/d) refers to the dose of the pure peptide as its free base form, not as its sulfate salt.
The doses were the following: polymyxin B 18 mg/kg/d (Group 1), polymyxin B 24 mg/kg/d (Group 2), NAB739 24 mg/kg/d (Group 3), NAB739 36 mg/kg/d (Group 4), NAB815 24 mg/kg/d (Group 5), NAB815 36 mg/kg/d (Group 6). Three animals were included in each study groups.
For seven days, the animals were dosed by intravenous (IV) infusion three times daily (TID) at a dose volume of 10 mL/kg for 1 hour (±10 minutes), 8±0.5 hours apart. The day of initial dose administration was designated study Day 1, with subsequent days consecutively numbered. Days prior to the initial dose administration were consecutively numbered with the final day of acclimation referenced as Day −1.
The following parameters were evaluated at designed intervals: clinical observations, body weights, clinical pathology (hematology, coagulation, serum chemistry, urinalysis including urine sediments and urine chemistry), toxicokinetics (plasma and urine) and anatomic pathology (kidney). In cases of animals sacrificed on an unscheduled basis, samples were taken on the day of the sacrifice.
On the day of necropsy, animals were sedated with ketamine, weighed, and anesthetized with an intravenous injection of a commercial pentobarbital and phenytoin solution, followed by exsanguinations.
At necropsy, gross observations and organ weights were recorded, and specific tissues were collected. Histopathology was conducted on sections of kidney stained with hematoxylin and eosin (H&E).
The figures also show Urine N-acetyl-β-D-glucosaminidase/urine creatinine ratio (U-NAG/Crea; FIG. 3) and Urine Gamma Glutamyltransferase/urine creatinine ratio (U-GGT/Crea; FIG. 4), both urine biomarkers for kidney injury, in those animals. S-Crea and U-Crea were measured by using an Olympus Analyzer (OA) and the modified Jaffe method, S-BUN by using OA and urease/L-glutamate dehydrogenase. U-NAG was measured by using OA/enzymatic, and U-GGT by using OA and glutamyl-carboxy-p-nitroanilide IFCC.
The presence of the following nephro-pathological parameters was recorded in each animal: tubular basophilia (re-generation), tubular degeneration/necrosis, infiltration (by mononuclear and/or mixed inflammatory cells), tubular dilatation, and tubular casts.

The test system of the next data set is E. coli ATCC 25922. The settings on record: E. coli ATCC 25922.
Another data set relates to E. coli JMI 3328. The following applies: for MIC: E. coli JMI 3328.
The next data set concerns K. pneumoniae JMI 27072. The following applies: K. pneumoniae JMI 27072.
The next data set relates to A. baumannii ATCC 19606. The following applies: A. baumannii ATCC 19606.
Another data set relates to E. coli JMI 109. The settings on record: alone; E. coli JMI 109 (polymyxin-nonsusceptible).
The subject of another data set is P. aeruginosa ATCC 27853. As to the kind of experiment: MIC assay (CLSI broth microdilution; checkerboard with rifampin). The following applies: P. aeruginosa ATCC 27853.
[2] abbreviates: in combination with rifampin 0.25 μg/mL.
[3] abbreviates: peptide at 1 μg/mL, E. coli JM13328.
The mark [4] stands for this setting: in combination with rifampin 0.25 μg/mL, A. baumannii CMI 417.

Values after ≈ are worked out from the molar mass of the structure shown. “Also recorded” adds a separate entry of the source. Where two headings read alike, the source gives them in different places. Where a SMILES comes first, the peptide text is derived from it. Bridges are numbered along the chain shown (N, C = ends). [ ]: non-standard residue; d: D form. The star is where a group is joined. Octanoyl = CCCCCCCC(=O)*; Dab = NCC[C@H](N)C(=O)O; Abu = CC[C@H](N)C(=O)O

`CCCCCCCC(=O)N[C@@H](CCN)C(=O)N[C@H](C(=O)N[C@@H](C(=O)N[C@H]1CCNC(=O)[C@H]([C@@H](C)O)NC(=O)[C@H](CCN)NC(=O)[C@H](CC)NC(=O)[C@H](CC(C)C)NC(=O)[C@@H](Cc2ccccc2)NC(=O)[C@H](CCN)NC1=O)[C@H](C)O)[C@@H](C)O` [NAB815, octanoyl-αDab-Thr-DThr-[cyclo-α,γDab-αDab-DPhe-Leu-Abu-αDab-Thr]] (Octanoyl-[Dab]T[dT][Dab][Dab][dF]L[Abu][Dab]T; lactam 4-C): the “synergistic activity with rifampin” value in the data set on P. aeruginosa was “lacked any notable synergistic activity with rifampin”. Further, the “kidney injury markers (S-BUN, S-Crea, U-NAG/Crea, U-GGT/Crea)” value in [1] (24 mg/kg/d IV TID 7 days) is “None of the parameters was elevated”; in data set [1] (36 mg/kg/d IV TID 7 days), “only minor if any elevations in the four parameters”. For the same compound, the “unscheduled necropsy / euthanized due to severe nephrotoxic effects” value in data set [1] (36 mg/kg/d IV TID 7 days) is “underwent no prescheduled necropsy”. Also, the “kidney histopathology findings (grade of nephro-pathological parameters)” value in data set [1] (36 mg/kg/d IV TID, H&E kidney sections, per animal(s)) is given as “moderate findings, both in one parameter only; also recorded: no other than minimal or mild findings; also recorded: less severe nephropathic alterations with NAB815”. The minimal inhibitory concentration (MIC) with E. coli ATCC 25922 (alone) is 2 µg/mL (≈ 1.7 µM); in the data set on E. coli ATCC 25922 (setting [2]), 1 µg/mL; with E. coli JMI 3328 (alone), 4 µg/mL (≈ 3.4 µM); in the data set on E. coli JMI 3328 (setting [2]) it was 1 µg/mL; in the data set with K. pneumoniae JMI 27072 (alone), 2 to 4 µg/mL; in the data set with A. baumannii ATCC 19606 (alone), 4 µg/mL (≈ 3.4 µM). In addition, the minimum inhibitory concentration (MIC) in the data set on A. baumannii ATCC 19606 (setting [2]) is 0.5 to 2 µg/mL; in the data set with A. baumannii CMI 417 (setting [4]), 2 µg/mL. Besides, the “MIC of rifampin in the presence of the peptide” value with E. coli ATCC 25922 (peptide at 1 μg/mL) and in the data set on E. coli JMI 3328 (setting [3]) was 0.25 µg/mL throughout. Further, the “factor of decrease of the MIC of rifampin” value in the data set with E. coli ATCC 25922 (peptide at 1 μg/mL) and in the data set with E. coli JMI 3328 (setting [3]) was 32 in each case.
Regarding Polymyxin B, the “unscheduled necropsy / euthanized due to severe nephrotoxic effects” value in data set [1] (18 mg/kg/d IV TID 7 days) was “all the three animals receiving polymyxin B at 18 mg/kg/d had to be euthanized; also recorded: on Day 4 for one animal receiving 18 mg/kg/d; also recorded: on Day 5 for two animals receiving 18 mg/kg/d”; in data set [1] (24 mg/kg/d IV TID 7 days) it was “Two animals receiving polymyxin B at 24 mg/kg/d; also recorded: for two animals receiving 24 mg/kg/d”. For the same compound, the “S-BUN, S-Crea and U-GGT/Crea” value in data set [1] (18 and 24 mg/kg/d IV TID, all the six animals) was “remarkably increased”. In data set [1] (18 and 24 mg/kg/d IV TID, six animals), the U-NAG/Crea result is given as “remarkably increased in five of the animals”. In addition, the minimum inhibitory concentration (MIC) in the data set on E. coli ATCC 25922 (alone) is 2 µg/mL; in the data set on E. coli ATCC 25922 (setting [2]) it was 0.5 to 1 µg/mL; against E. coli JMI 3328 (alone), 2 µg/mL; in the data set on E. coli JMI 3328 (setting [2]), 0.5 to 1 µg/mL; with K. pneumoniae JMI 27072 (alone), 2 µg/mL; in the data set on K. pneumoniae JMI 27072 (setting [2]), 1 µg/mL. Moreover, the MIC in the data set on A. baumannii ATCC 19606 (alone) was 2 µg/mL; in the data set with A. baumannii ATCC 19606 (setting [2]), 0.5 µg/mL; against A. baumannii JMI 48125 (alone), 2 µg/mL; in the data set with A. baumannii JMI 48125 (setting [2]) it was 1 µg/mL; in the data set on E. coli JMI 109, 4 to 8 µg/mL; in the data set with A. baumannii CMI 417 (alone, A. baumannii CMI 417 (polymyxin-nonsusceptible)) it was 32 µg/mL. For the same compound, the MIC in the data set with A. baumannii CMI 417 (setting [4]) amounted to 1 µg/mL; with P. aeruginosa ATCC 27853 (alone), 2 µg/mL; in the data set with P. aeruginosa ATCC 27853 (setting [2]), 1 µg/mL.
